Measured values from patent publication EP4501942A1, “PEPTIDOMIMETICS WITH ANTIVIRAL ACTIVITY” (priority 2023, dated 2025).
Read-outs that look alike come from different tables or passages of the source.

Assays:
[1] = Cytotoxicity MTT assay in uninfected A549-ACE2 cells; format: cell-based; conditions: human
Protocol: To evaluate the cytotoxicity profile of the compounds MTT assays were performed in A549-ACE2 cells. Uninfected cells were incubated with a range of compound concentrations (from 100 to 1 µM) for forty-eight hours, time at which the MTT substrate [3-(4,5-dimethylthiazol-2-yl)-2,5-diphenyltetrazolium bromide] was added and the formation of formazan precipitates was evaluated two hours later, using a colorimetric readout. Vehicle-treated (DMSO) cells were used as reference (100 %).

SARS-CoV-2 = assay: microbe, parasite or virus in culture; format: cell-based
SARS-CoV-2 M^pro protein = SARS-CoV-2 M^pro protein (Severe acute respiratory syndrome coronavirus 2, UniProt P0DTD1); assay: biochemical; conditions: for IC50: three separate experiments in duplicate, read-out: IC50, mean±SD; for inhibition at 10 µM: read-out: % of inhibition at 10 µM
in vitro [2] = conditions: human
[3] = tested on: GFP-expressing recombinant vesicular stomatitis virus (VSV-GFP); assay: microbe, parasite or virus in culture; format: cell-based; conditions: A549-ACE2, 16 h
in vitro [4] = assay: in vitro
[5] = Severe acute respiratory syndrome coronavirus 2, SARS-CoV-2, A549-ACE2 cells, MOI 0.005, 48 h, read-out: EC50
[6] = Severe acute respiratory syndrome coronavirus 2, SARS-CoV-2, A549-ACE2 cells, MOI 0.005, 48 h, read-out: EC90
[7] = isolated SARS-CoV-2 M^pro, compound at 10 µM
[8] = Severe acute respiratory syndrome coronavirus 2, A549-ACE2, 48 h

Structure (SMILES) | CC50 at 48 h [1] | EC50 (SARS-CoV-2; [5]) | EC90 (SARS-CoV-2; [6]) | IC50 (SARS-CoV-2 M^pro protein; isolated SARS-CoV-2 M^pro) | further results
CC(C)[C@H](NC(=O)OCC(F)F)C(=O)N1C[C@@H](C)[C@@]1(Cc1ccccc1)C(=O)N[C@H](C#N)C[C@@H]1CCNC1=O [Example 39] | > 50 µM | 0.4 µM | 2 µM | – | –
CC(C)C[C@@]1(C(=O)N[C@H](C#N)C[C@@H]2CCNC2=O)[C@H](C)CN1C(=O)[C@@H](NC(=O)OC(C)(C)C)C(C)(C)C [Example 12] | 100 µM | 29 µM | > 50 µM | 4.7 ± 0.76 µM | –
CC(C)[C@H](NC(=O)OCc1ccccc1)C(=O)N1C[C@@H](C)[C@@]1(Cc1ccc(O)cc1)C(=O)N[C@H](C#N)C[C@@H]1CCNC1=O [Example 9] | – | – | – | 6.43 ± 0.53 µM | –
C[C@@H]1CN(C(=O)[C@H](CCCCNC(=O)OC(C)(C)C)NC(=O)OCc2ccccc2)[C@]1(Cc1ccccc1)C(=O)N[C@H](C#N)C[C@@H]1CCNC1=O [Example 20] | 100 µM | 7 µM | 18 µM | – | –
CC(C)C[C@]1(C(=O)N[C@H](C#N)C[C@@H]2CCNC2=O)[C@@H](C)CN1C(=O)[C@@H](NC(=O)C(F)(F)F)C(C)C [Example 4] | – | – | – | – | inhibition at 10 µM (SARS-CoV-2 M^pro protein; [7]): 0%
CC(C)C[C@@]1(C(=O)N[C@H](C=O)C[C@@H]2CCNC2=O)[C@H](C)CN1C(=O)[C@@H](NC(=O)OCc1ccccc1)C(C)C [Example 27, Z-L-Val-(αS,β'R)-Azl-L-Ala(3S-2-oxopyrrolidin-3-yl)-H] | > 100 µM | 1 µM | 5 µM | 0.077 ± 0.02 µM | CC50 (in vitro [2]): > 50 µM; EC50 [3]: > 50 µM; EC90 [3]: > 50 µM
C[C@@H]1CN(C(=O)[C@@H](NC(=O)OCC(F)F)C(C)(C)C)[C@]1(Cc1ccccc1)C(=O)N[C@H](C#N)C[C@@H]1CCNC1=O [Example 18] | > 100 µM | 4 µM | 7 µM | – | –
C[C@@H]1CN(C(=O)[C@H](CCCCN)NC(=O)OCc2ccccc2)[C@]1(Cc1ccccc1)C(=O)N[C@H](C#N)C[C@@H]1CCNC1=O [Example 21] | – | – | – | 3.66 µM | –
C[C@@H]1CN(C(=O)[C@@H](NC(=O)C(F)(F)F)C(C)(C)C)[C@]1(Cc1ccccc1)C(=O)N[C@H](C#N)C[C@@H]1CCNC1=O [Example 15] | > 100 µM | 2 µM | 13 µM | – | –
CC(C)[C@@H](CC(=O)N1C[C@@H](C)[C@@]1(Cc1ccccc1)C(=O)N[C@H](C#N)C[C@@H]1CCNC1=O)NC(=O)OC(C)(C)C [Example 26] | – | – | – | – | inhibition at 10 µM (SARS-CoV-2 M^pro protein): 28%
COC(=O)N[C@H](C(=O)N1C[C@@H](C)[C@@]1(Cc1ccccc1)C(=O)N[C@H](C=O)C[C@@H]1CCNC1=O)C(C)(C)C [Example 30, Methyloxycarbonyl-L-Tbg-(αS,β'R)-Azf-L-Ala(3S-2-oxopyrrolidin-3-yl)-CHO] | > 100 µM | 15 µM | 25 µM | 0.048 ± 0.004 µM | –
CC(C)[C@H](NC(=O)OCc1ccccc1)C(=O)N1C[C@@H](C)[C@@]1(Cc1ccccc1)C(=O)N[C@H](C#N)C[C@@H]1CCNC1=O [Example 5] | > 100 µM | 1 µM | 6 µM | 0.13 ± 0.03 µM | –
C[C@@H]1CN(C(=O)[C@@H](NC(=O)OCc2ccccc2)C(C)(C)C)[C@]1(CCCCNC(=O)OC(C)(C)C)C(=O)N[C@H](C#N)C[C@@H]1CCNC1=O [Example 22] | – | – | – | – | inhibition at 10 µM (SARS-CoV-2 M^pro protein): 16%
CCCC[C@@H](C#N)NC(=O)[C@]1(CC(C)C)[C@H](C)CN1C(=O)[C@@H](NC(=O)OC(C)(C)C)C(C)(C)C [Example 34, Boc-L-Tbg-(aS,β'R)-Azl-NH-[(1S)-1-cyano]pentane] | – | – | – | – | CC50 (in vitro [4]): > 50 µM; inhibition at 10 µM (SARS-CoV-2 M^pro protein): 0%
CC(C)[C@H](NC(=O)OCc1ccccc1)C(=O)N1C[C@@H](C)[C@@]1(Cc1c[nH]c2ccccc12)C(=O)N[C@H](C#N)C[C@@H]1CCNC1=O [Example 11] | > 100 µM | 31 µM | 48 µM | 4.74 ± 0.81 µM | –
CC(C)C[C@@]1(C(=O)N[C@H](C#N)C[C@@H]2CCNC2=O)[C@H](C)CN1C(=O)[C@@H](NC(=O)C(F)(F)F)C(C)C [Example 3] | 100 µM | 10 µM | 32 µM | 2.58 ± 0.48 µM | –
C[C@@H]1CN(C(=O)[C@@H](NC(=O)OC(C)(C)C)C(C)(C)C)[C@]1(Cc1ccccc1)C(=O)N[C@H](/C=C/C(=O)OCc1ccccc1)C[C@@H]1CCNC1=O [Example 32] | – | – | – | – | inhibition at 10 µM (SARS-CoV-2 M^pro protein): 40%
C[C@@H]1CN(C(=O)[C@@H](NC(=O)OCc2ccccc2)C(C)(C)C)[C@]1(Cc1ccccc1)C(=O)N[C@H](C#N)C[C@@H]1CCNC1=O [Example 13] | > 100 µM | 4 µM | 15 µM | – | –

Structure (SMILES) | CC50 at 48 h [1] | EC50 (SARS-CoV-2; [5]) | EC90 (SARS-CoV-2; [6]) | IC50 (SARS-CoV-2 M^pro protein; isolated SARS-CoV-2 M^pro) | further results
CC(C)C[C@]1(C(=O)N[C@H](C#N)C[C@@H]2CCNC2=O)[C@@H](C)CN1C(=O)[C@@H](NC(=O)OCc1ccccc1)C(C)C [Example 2] | – | – | – | – | inhibition at 10 µM (SARS-CoV-2 M^pro protein; [7]): 0%
C[C@@H]1CN(C(=O)[C@@H](NC(=O)OCc2ccccc2)C(C)(C)C)[C@]1(Cc1ccccc1)C(=O)N[C@H](C#N)Cc1c[nH]cn1 [Example 24] | > 100 µM | 18 µM | 40 µM | – | inhibition at 10 µM (SARS-CoV-2 M^pro protein): 10%
CC(C)C(NC(=O)C1CC1)C(=O)N1CC(C)C1(Cc1ccccc1)C(=O)NC(C#N)CC1CCNC1=O [Example 8, Cyclopropylcarbonyl-L-Val-(αS,β'R)-Azf-NH[(1S)-1-cyano-2-[(3'S)-2'-oxopyrrolidin-3'-yl]ethane] | > 100 µM | 8 µM | 31 µM | 0.39 ± 0.05 µM | –
COC(=O)N[C@H](C(=O)N1C[C@@H](C)[C@@]1(Cc1ccccc1)C(=O)N[C@H](C#N)C[C@@H]1CCNC1=O)C(C)(C)C [Example 16] | > 100 µM | 3 µM | 20 µM | 0.94 ± 0.17 µM | –
C[C@@H]1CN(C(=O)[C@@H](NC(=O)OCC(F)F)C(C)(C)C)[C@]1(CC1CCCCC1)C(=O)N[C@H](C#N)C[C@@H]1CCNC1=O [Example 37] | > 100 µM | 4 µM | 22 µM | – | –
C[C@@H]1CN(C(=O)[C@@H](NC(=O)OCC(F)F)C(C)(C)C)[C@]1(Cc1ccccc1)C(=O)N[C@H](C=O)C[C@@H]1CCNC1=O [Example 31, 2,2-Difluoroethyloxycarbonyl-L-Tbg-(αS,β'R)-Azf-L-Ala(3S-2-oxopyrrolidin-3-yl)-H] | > 100 µM | 3 µM | 11 µM | 0.024 ± 0.002 µM | –
C[C@@H]1CN(C(=O)[C@@H](NC(=O)OC(C)(C)C)C(C)(C)C)[C@]1(CC1CCCCC1)C(=O)N[C@H](C#N)C[C@@H]1CCNC1=O [Example 35] | > 100 µM | 3 µM | 20 µM | – | –
C[C@@H]1CN(C(=O)[C@@H](NC(=O)C(F)(F)F)C(C)(C)C)[C@]1(CC1CCCCC1)C(=O)N[C@H](C#N)C[C@@H]1CCNC1=O [Example 38] | > 100 µM | 25 µM | > 25 µM | 2.36 ± 0.75 µM | –
CC(C)[C@H](NC(=O)OCc1ccccc1)C(=O)N1C[C@@H](C)[C@@]1(Cc1ccc(OC(C)(C)C)cc1)C(=O)N[C@H](C#N)C[C@@H]1CCNC1=O [Example 10] | – | – | – | – | inhibition at 10 µM (SARS-CoV-2 M^pro protein): 9%
Cc1c(-c2ccc(-c3ccccc3F)cc2)nc2ccc(F)cc2c1C(=O)O [Brequinar, reference compound] | – | – | – | – | CC50 (in vitro [2]): > 50 µM; EC50 [3]: < 0.6 µM; EC90 [3]: < 0.6 µM
CC(C)[C@H](NC(=O)OCc1ccccc1)C(=O)N1C[C@@H](C)[C@@]1(Cc1ccccc1)C(=O)N[C@H](C=O)C[C@@H]1CCNC1=O [Example 28, Z-L-Val-(αS,β'R)-Azf-L-Ala(3S-2-oxopyrrolidin-3-yl)-H] | > 100 µM | 2 µM | 12 µM | 0.005 ± 0.002 µM | –
CC(C)[C@H](NC(=O)C(F)(F)F)C(=O)N1C[C@@H](C)[C@@]1(Cc1ccccc1)C(=O)N[C@H](C#N)C[C@@H]1CCNC1=O [Example 7] | > 100 µM | 2 µM | 12 µM | 0.2 ± 0.03 µM | –
CC(C)C[C@@]1(C(=O)N[C@H](C#N)C[C@@H]2CCNC2=O)[C@H](C)CN1C(=O)[C@@H](NC(=O)OCC(F)F)C(C)(C)C [Example 33] | > 100 µM | 16 µM | > 25 µM | 5.94 ± 0.69 µM | –
CC(C)(C)[C@@H]1NC(=O)O[C@@H]2CCC[C@H]2OC/C=C/C(F)(F)c2nc3ccccc3nc2O[C@@H]2C[C@@H](C(=O)N[C@]3(C(=O)NS(=O)(=O)C4(C)CC4)C[C@H]3C(F)F)N(C2)C1=O [Glecaprevir, reference compound] | – | – | – | – | CC50 (in vitro [4]): > 50 µM
CC(C)C[C@@]1(C(=O)N[C@H](C#N)C[C@@H]2CCNC2=O)[C@H](C)CN1C(=O)[C@@H](NC(=O)OCc1ccccc1)C(C)C [Example 1] | > 100 µM | 5 µM | 20 µM | 1.99 ± 1 µM | –
Cc1ccc(OCC(=O)N[C@H](C(=O)N2C[C@@H](C)[C@@]2(Cc2ccccc2)C(=O)N[C@H](C#N)C[C@@H]2CCNC2=O)C(C)(C)C)cc1 [Example 17] | 100 µM | 3 µM | 18 µM | 1.03 µM | –
CC(C)(C)[C@H](NC(=O)C(F)(F)F)C(=O)N1C[C@H]2[C@@H]([C@H]1C(=O)N[C@H](C#N)C[C@@H]1CCNC1=O)C2(C)C [PF-07321332, nirmatrelvir, reference compound] | 100 µM | – | – | – | EC50 (SARS-CoV-2; [8]): < 0.2 µM; EC90 (SARS-CoV-2; [8]): < 0.2 µM
C[C@@H]1CN(C(=O)[C@@H](NC(=O)OCc2ccccc2)C(C)(C)C)[C@]1(CCCCN)C(=O)N[C@H](C#N)C[C@@H]1CCNC1=O [Example 23] | – | – | – | – | inhibition at 10 µM (SARS-CoV-2 M^pro protein): 0%
